Patent US12077501B2, “Compounds and compositions for intracellular delivery of agents” (ModernaTX, Inc., priority 2017, dated 2024)

Tests used:
[1] = Particle size and polydispersity index of nanoparticle compositions (Zetasizer Nano ZS); assay type: physicochemical; conditions: row marked **: Formulated with lipid:Chol:DOPE:PEG 1 30:38.5:30:1.5
Experimental: A Zetasizer Nano ZS (Malvem Instruments Ltd, Malvem, Worcestershire, UK) can be used to determine the particle size, the polydispersity index (PDI) and the zeta potential of the nanoparticle compositions in 1×PBS in determining particle size and 15 mM PBS in determining zeta potential.

[2] = Encapsulation efficiency of RNA (QUANT-IT RIBOGREEN RNA assay); assay type: physicochemical; conditions: row marked **: Formulated with lipid:Chol:DOPE:PEG 1 30:38.5:30:1.5
How it was run: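 RiboGreen fluorescence (ex about 480, em about 520 nm) compares nanoparticle samples left intact versus disrupted with 2% Triton X-100 (15 min, 37° C). Samples are first brought to roughly 5 μg/mL in 10 mM Tris-HCl, 1 mM EDTA, pH 7.5; percent free RNA equals the blank-corrected intact/disrupted signal ratio.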

[3] = Purity at start and after storage for 65 h at 25 °C or 37 °C; assay type: physicochemical
[4] = tested on: hepatocytes and Kupffer cells; test: Mouse liver immunohistochemistry (IHC) with GFP mRNA (FIGS. 11A, 11B); assay type: in vivo; conditions: LDLR knockout mouse liver, 8h after intravenous administration, 0.5 mpk (FIG. 11B), in contrast to MC3
Text: FIGS. 11A and 11B are a pair of images comparing the results of a mouse liver immunohistochemistry (IHC) using mRNA expressing green fluorescent protein (GFP) after administration of nanoparticle compositions containing Compound 4 and MC3.

[5] = tested on: hEPO expression; test: hEPO expression in CD-1 mice compared with MC3; assay type: in vivo
How it was run: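 Dosing: 0.5 mpk nanoparticle composition, CD-1 mice. Measured: hEPO expression.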

[6] = Lipid clearance: % dose remaining in liver of CD-1 mice; assay type: in vivo; conditions: intravenous, 0.5 mg/kg, CD-1 mouse, Table 8a
How it was run: (§1)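 Expression and clearance data were obtained for nanoparticle compositions with various test compounds, run in parallel with an MC3 composition.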

[7] = tested on: hEPO expression; test: hEPO (miR126 + miR142) mRNA expression, Tables 8b-8e; assay type: in vivo
[8] = Lipid clearance: % dose remaining, Tables 7c and 8b-8e (species not given); assay type: in vivo
How it was run: as §1

[9] = tested on: hEPO expression; test: hEPO expression in Cynomolgus monkeys; assay type: in vivo; conditions: 0.05 mg/kg
Experimental: Nanoparticle compositions of the disclosure, including an mRNA encoding hEPO and comprising a miR binding site, were administered to Cynomolgus monkeys at a dose of 0.05 mg/kg via a 60 min intravenous infusion.

[10] = Characteristics of nanoparticle compositions formulated with PEG-DMG or PEG 1 over 4 weeks; assay type: physicochemical
Experimental: Formulations were prepared according to Table 13 and included an mRNA encoding hEPO and the particle size, polydispersity index and encapsulation efficiency were recorded on day 1 (week 1), day 8 (week 2), day 15 (week 3), and day 22 (week 4), of the study.

[11] = tested on: rats; test: Tolerability / toxicity in rats (FIGS. 8A, 8B); assay type: in vivo; conditions: 2 mg/kg dose
[12] = tested on: Luc expression; test: Luc expression in CD-1 mice compared with MC3; assay type: in vivo; conditions: ratio to MC3, Table 7a
Text: In contrast, hEPO expression in rats induced by administration of a nanoparticle composition including a compound according to one of formulae (I), (Ia1)-(Ia6), (Ib), (II), (IIa), (III), and (IIIa) was substantially […] than that measured for MC3. […] Tables 7c and 7d show additional protein expressions and clearance data from compositions with various compounds disclosed herein as compared to with MC3. Tables 7e, 7f and 7g show hEPO expression data in CD-1 mice at a dose of 0.5 mpk.

[13] = tested on: hEPO; test: hEPO expression in rats after i.v. administration of nanoparticle compositions (FIGS. 8A, 8B); assay type: in vivo, rat; conditions: rats (FIGS. 8A and 8B)
Text: PBS (phosphate buffered saline) is used as control. FIG. 8A compares the hEPO concentration after administration of nanoparticle compositions containing Compound 23, Compound 11, KL22, and MC3 at 2 mpk, i.v. administration. […] FIG. 8B illustrates the results of a dose response study using Compound 20, KL22, and MC3 at dose of 0.2, 0.5 and 1 mpk. […] In FIG. 8A, the numbers 1-5 refer to compositions containing the following: 1: Compound 23, 2: Compound 11, 3: KL22; 4: MC3; 5: PBS. In FIG. 8B, the numbers […] refer to compositions containing the following: 1: Compound 20, 0.2 mpk; 2: Compound 20, 0.5 mpk; 3: Compound 20, 1 mpk; 4: KL22, 0.2 mpk; 5: KL22, 0.5 mpk; 6: KL22, 1 mpk; 7: MC3, 0.2 mpk; 8: MC3, 0.5 mpk; 9: MC3, 1 mpk; 10: PBS.

[14] = tested on: LDL levels; test: LDL levels in LDLr-/- mice relative to untreated; assay type: in vivo; conditions: intravenous, Table 7b
[15] = Week 1, 40:20:38.5:1.5 Lipid:DOPE:Chol:PEG 1
[16] = Week 1, 40:20:38.5:1.5 Lipid:DOPE:Chol:PEG-DMG
[17] = Week 2, 40:20:38.5:1.5 Lipid:DOPE:Chol:PEG 1
[18] = Week 2, 40:20:38.5:1.5 Lipid:DOPE:Chol:PEG-DMG
[19] = Week 3, 40:20:38.5:1.5 Lipid:DOPE:Chol:PEG 1
[20] = Week 3, 40:20:38.5:1.5 Lipid:DOPE:Chol:PEG-DMG
[21] = Week 4, 40:20:38.5:1.5 Lipid:DOPE:Chol:PEG 1
[22] = Week 4, 40:20:38.5:1.5 Lipid:DOPE:Chol:PEG-DMG

CCCCCCCCCN(CCCCCCCCC)CCN(CCCCCCCCC)CC(=O)N1CCN(C(=O)CN(CCCCCCCCC)CCCCCCCCC)CC1 [Compound 4, 2-(Dinonylamino)-1-(4-(N-(2-(dinonylamino)ethyl)-N-nonylglycyl)piperazin-1-yl)ethan-1-one]
PDI ([1]; Table 1e): 0.19
Size (nm) ([1]; Table 1e): 99.2 nm
PDI ([1]; Table 1f): 0.21
Size (nm) ([1]; Table 1f): 111.5 nm
PDI ([1]; Table 1d): 0.23
Size (nm) ([1]; Table 1d): 101.5 nm
EE (%) ([2]; Table 1e): 98.6%
EE (%) ([2]; Table 1f): 98.8%
EE (%) ([2]; Table 1d): 99.1%
Purity % 25° C. no shaking t = 65 h ([3]; after storage for 65 h at 25° C., no shaking): 99%
Purity % 37° C. shaking t = 65 h ([3]; after storage for 65 h at 37° C., shaking): 99%
Purity % t = 0 h ([3]; beginning of the study, 25° C.): 98%
GFP protein expression in liver cell types (IHC) [4]: less protein expression in Kupffer cells
AUC (p/s*h) CD-1 mice 0.5 mpk ([5]; intramuscular, title: 0.01 mg/kg, Table 7f): 366551 p/s*h
AUC (p/s*h) CD-1 mice 0.5 mpk ([5]; subcutaneous, 0.5 mg/kg, Table 7g): 859874 p/s*h
% Dose Remaining 24 hr [6]: 60.36%
AUC ([7]; Table 8b): 6.7e+07 pg·h/mL
AUC ([7]; Table 8c): 8.47e+07 pg·h/mL
AUC ([7]; Table 8d): 1.83e+09 pg·h/mL
AUC (mIU/mL*h) ([7]; lipid:Chol:PEG 1 50:47.5:2.5, Table 8e): 2.76E+08 mIU/mL*h
% Dose Remaining (liver, 24 h) ([8]; Table 8b): 39.23%
% Dose Remaining (liver, 24 h) ([8]; Table 8c): 37.05%
% Dose Remaining (liver, 24 h) ([8]; Table 8d): 43.02%
levels of hEPO expression compared to MC3 [9]: improved levels of hEPO expressions
EE (%) [10, 15]: 98%
PDI [10, 15]: 0.22
Size (nm) [10, 15]: 101.5 nm
EE (%) [10, 16]: 99%
PDI [10, 16]: 0.23
Size (nm) [10, 16]: 79.9 nm
EE (%) [10, 17]: 97%
PDI [10, 17]: 0.21
Size (nm) [10, 17]: 104.1 nm
EE (%) [10, 18]: 99%
PDI [10, 18]: 0.21
Size (nm) [10, 18]: 79.9 nm
EE (%) [10, 19]: 97%
PDI [10, 19]: 0.2
Size (nm) [10, 19]: 100.4 nm
EE (%) [10, 20]: 99%
PDI [10, 20]: 0.22
Size (nm) [10, 20]: 77.3 nm
EE (%) [10, 21]: 97%
PDI [10, 21]: 0.2
Size (nm) [10, 21]: 101.9 nm
EE (%) [10, 22]: 99%
PDI [10, 22]: 0.21
Size (nm) [10, 22]: 73.6 nm

CCCCCCCCCCCCN(CCCCCCCCCCCC)CCN(CCCCCCCCCCCC)CCN1CCN(CCN(CCCCCCCCC)CCCCCCCCC)CC1 [Compound 23, N^1-(2-(4-(2-(Dinonylamino)ethyl)piperazin-1-yl)ethyl)-N^1,N^2,N^2-tridodecylethane-1,2-diamine]
toxicity [11]: toxic
Lipid/MC3 Luc CD-1 (mice) [12]: several fold higher

CCCCCCCCCCCCN(CCCCCCCCCCCC)CCN(CCCCCCCCCCCC)CCN1CCN(CCN(CCCCCCCCCCCC)CCCCCCCCCCCC)CC1 [KL22, N1-[2-(didodecylamino)ethyl]-N1,N4,N4-tridodecyl-1,4-piperazinediethanamine, reference compound]
hEPO expression levels in rats [13]: do not express hEPO in rats
toxicity [11]: toxic
LDL levels lipid/untreated LDLr−/− mice 0.5 mpk, LDLr [14]: 0.51
